BindingDB's records for doi:10.1021/jm9604890 (University of Groningen, 1997)

Assay: Compound was tested for intrinsic efficacy against human 5-hydroxytryptamine 1D receptor alpha measured as the reduction of forskolin-stimulated cAMP.

Structure (SMILES)	Ki
CCCN(CCC)CCc1c[nH]c2ccc(OS(=O)(=O)C(F)(F)F)cc12 [Trifluoro-methanesulfonic acid 3-(2-dipropylamino-ethyl)-1H-indol-5-yl ester]	36 nM
CN(C)CCc1c[nH]c2ccc(OS(=O)(=O)C(F)(F)F)cc12 [Trifluoro-methanesulfonic acid 3-(2-dimethylamino-ethyl)-1H-indol-5-yl ester]	30 nM
NCCc1c[nH]c2ccc(OS(=O)(=O)C(F)(F)F)cc12 [Trifluoro-methanesulfonic acid 3-(2-amino-ethyl)-1H-indol-5-yl ester]	19 nM
